# In PubChem BioAssay AID2060346 (Molecular Pharmacology Branch, DTP, NCI, 2025):
# pIC50: −log10 of the molar value. Values joined by “and” are separate entries in the source; they are usually repeats but may differ in a detail not shown here. Equal entries are not always repeated.
# System: CN0375-F725-PDC multi-cell spheroids, viability
# Assay: Anticancer human tumor CN0375-F725-PDC patient-derived colon carcinoma cell line growth inhibition [TAK]
# Conditions: for viability, T/C: stronger effect = lower value
# Text: Combinatorial screen of targeted agents with TAK-243 and ipatasertib in multi-cell type tumor spheroids
# A high-throughput screen of multi-cell type tumor spheroids was designed to identify active combinations of targeted small molecules and TAK-243 or ipatasertib. Complex spheroids include a stromal component modeled by human endothelial cells (HUVEC) and fibroblasts modeled by human mesenchymal stem cells (MSCs). The concentration ranges selected for each drug and investigational agent were based upon clinically achievable concentrations if the clinical Cmax of the agent was known.
# Compounds. The drugs and investigational agents: TAK-243 (785004), ipatasertib (767898), everolimus (733504), selumetinib (741078), bortezomib (756655), trametinib (758246), ixazomib (758254), vemurafenib (761431), dabrafenib (764134), sapanisertib (764658), alpelisib (765974), and copanlisib (816437), were obtained from the National Cancer Institute (NCI) Developmental Therapeutics Program Chemical Repository. The FDA-approved anticancer drug set is available from the NCI Developmental Therapeutics Program. […] The stock solutions were prepared in dimethyl sulfoxide (DMSO, Sigma-Aldrich, St. Louis, MO, cat. D2650) at 800-fold the tested concentration and stored at -70 degrees C prior to their use. All drugs and investigational agents were tested over a range starting from a high concentration at or near the clinical Cmax and decreasing in half-log increments. If the clinical Cmax for an agent had not been determined, the highest concentration tested was 10 microM.
# NCI60 Cell Culture. NCI60 cell lines were obtained from the NCI Developmental Therapeutics Program Tumor Repository. For each lot of cells, the Repository performed Applied Biosystems AmpFLSTR Identifiler testing with PCR amplification to confirm consistency with the published Identifier STR profile for each cell line. Cells were kept in continuous culture for no more than 20 passages. The optimal seeding densities for each of the cell lines at each time point assessed were determined prior to performing the concentration response studies. Briefly, the NCI60 human tumor lines were grown as monolayers in RPMI 1640 medium supplemented with 10% FBS and 2 mmol/L L-glutamine.
# An additional 2 lines were from the NCI60 cell line panel including melanomas, MALME-3M and SK-MEL-2. Pooled donor human umbilical vein endothelial cells (HUVEC, Lonza, cat. CC-2519) and human mesenchymal stem cells (hMSC, Lonza, cat. PT-2501) were purchased from Lonza (Walkersville, MD).
# PDMR cell lines were grown in complete medium (DC medium): Dulbecco's modified Eagle's medium (DMEM)/F12 supplemented with 5% fetal bovine serum (FBS), 2 mM L-glutamine, 100 U/mL penicillin and 100 µg/ml streptomycin, 0.4 µg/ml hydrocortisone, 10 ng/ml epidermal growth factor (EGF) recombinant human protein, 24 µg/mL adenine, and 0.1 mg/mL primocin. During culture from frozen stock vials, PDMR cells were cultured in the same medium containing 10 µM Y-27632 (see Table 3). The PDCs were cultured in complete DMEM/F12 media without 10 microM Y-27632 dihydrochloride for at least two passages prior to the screen. The pooled donor HUVEC and hMSC were cultured in endothelial cell growth medium 2 (PromoCell, Heidelberg, Germany, cat. C-22011) and mesenchymal stem cell growth medium 2 (PromoCell, cat. C-28009), respectively. For all experiments, HUVEC and hMSC were used at passages </=5.
# For the pre-screen, cell seeding densities were determined from a titration spanning the range from 5,000 to 313 cells per well. The mct-spheroids including 60% malignant cells, 25% HUVEC and 15% MSC dispensed as a mixture into U-bottom Ultra-Low Attachment 384-well plates (Corning, NY)
# High-throughput Drug Combination Screening.
# Prior to their inoculation into 384-well plates, malignant cells, HUVEC, and hMSC were removed from T flasks using TrypLE express (Thermo Fisher Scientific, cat. 12605036) and harvested by centrifugation for 5 min at 233 x g. […]
# 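Note: spheroids exposed to drugs for seven days.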
# 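Throughout, for viability, T/C: 100% = DMSO vehicle control wells.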
smiles,measurement,setting,value
CC(=O)Nc1cccc(-n2c(=O)n(C3CC3)c(=O)c3c(Nc4ccc(I)cc4F)n(C)c(=O)c(C)c32)c1,"viability, T/C",compound 94.9 pM,106% and 100%
same,"viability, T/C",compound 0.0003 µM,96.5% and 91.6%
same,"viability, T/C",compound 0.000949 µM,78.1% and 77.9%
same,"viability, T/C",compound 0.003 µM,67.4% and 64.9%
same,"viability, T/C",compound 0.00949 µM,52.9% and 52.8%
same,"viability, T/C",compound 0.03 µM,35.6% and 38.6%
same,pIC50,curve of compound,7.97 and 7.95
CC(C)(C)c1nc(-c2cccc(NS(=O)(=O)c3c(F)cccc3F)c2F)c(-c2ccnc(N)n2)s1,"viability, T/C",compound 0.0316 µM,126% and 115%
same,"viability, T/C",compound 0.1 µM,130% and 129%
same,"viability, T/C",compound 0.316 µM,126% and 133%
same,"viability, T/C",compound 1 µM,112% and 127%
same,"viability, T/C",compound 3.16 µM,104% and 119%
same,"viability, T/C",compound 10 µM,110% and 107%
same,pIC50,curve of compound,< 5.00
CC(C)CC(NC(=O)C(Cc1ccccc1)NC(=O)c1cnccn1)B(O)O (configuration not stated),"viability, T/C",compound 31.6 pM,112% and 110%
same,"viability, T/C",compound 0.0001 µM,98.7% and 113%
same,"viability, T/C",compound 0.000316 µM,104% and 103%
same,"viability, T/C",compound 0.001 µM,109% and 105%
same,"viability, T/C",compound 0.00316 µM,103% and 106%
same,"viability, T/C",compound 0.01 µM,34.9% and 35.3%
same,pIC50,curve of compound,8.11 and 8.10
CC(C)CC(NC(=O)CNC(=O)c1cc(Cl)ccc1Cl)B1OC(=O)CC(CC(=O)O)(C(=O)O)O1 (configuration not stated),"viability, T/C",compound 0.000316 µM,113% and 106%
same,"viability, T/C",compound 0.001 µM,112% and 104%
same,"viability, T/C",compound 0.00316 µM,103% and 102%
same,"viability, T/C",compound 0.01 µM,111% and 109%
same,"viability, T/C",compound 0.0316 µM,78.3% and 75.7%
same,"viability, T/C",compound 0.1 µM,23.4% and 22.6%
same,pIC50,curve of compound,7.24 and 7.26
CC(C)NCC(C(=O)N1CCN(c2ncnc3c2C(C)CC3O)CC1)c1ccc(Cl)cc1 (configuration not stated),"viability, T/C",compound 0.3 µM,97.1% [middle of 10 runs]
same,"viability, T/C",compound 0.949 µM,93.7% [middle of 10 runs]
same,"viability, T/C",compound 3 µM,91.4% [middle of 10 runs]
same,"viability, T/C",compound 9.49 µM,84.7% [middle of 10 runs]
same,"viability, T/C",compound 30 µM,83.7% [middle of 10 runs]
same,pIC50,"compound alone, run of 02/28/2020",< 4.52
same,pIC50,"compound alone, run of 03/19/2020",< 4.52
CC(C)n1nc(-c2ccc3oc(N)nc3c2)c2c(N)ncnc21,"viability, T/C",compound 0.000316 µM,109% and 106%
same,"viability, T/C",compound 0.001 µM,105% and 101%
same,"viability, T/C",compound 0.00316 µM,91.7% and 93.4%
same,"viability, T/C",compound 0.01 µM,85.5% and 83.8%
same,"viability, T/C",compound 0.0316 µM,73.1% and 76.7%
same,"viability, T/C",compound 0.1 µM,58.9% and 61.4%
same,pIC50,curve of compound,< 7.00
CCCS(=O)(=O)Nc1ccc(F)c(C(=O)c2c[nH]c3ncc(-c4ccc(Cl)cc4)cc23)c1F,"viability, T/C",compound 0.316 µM,113% and 115%
same,"viability, T/C",compound 1 µM,122%
same,"viability, T/C",compound 3.16 µM,114% and 109%
same,"viability, T/C",compound 10 µM,75.1% and 65.5%
same,"viability, T/C",compound 31.6 µM,118% and 111%
same,"viability, T/C",compound 100 µM,101% and 111%
same,pIC50,curve of compound,< 4.00
COC1CC2CCC(C)C(O)(O2)C(=O)C(=O)N2CCCCC2C(=O)OC(C(C)CC2CCC(OCCO)C(OC)C2)CC(=O)C(C)C=C(C)C(O)C(OC)C(=O)C(C)CC(C)C=CC=CC=C1C (configuration not stated),"viability, T/C",compound 0.000316 µM,108% and 127%
same,"viability, T/C",compound 0.001 µM,103% and 118%
same,"viability, T/C",compound 0.00316 µM,90.9% and 96.7%
same,"viability, T/C",compound 0.01 µM,88.1% and 93.2%
same,"viability, T/C",compound 0.0316 µM,84.9% and 77.9%
same,"viability, T/C",compound 0.1 µM,83.9% and 82.5%
same,pIC50,curve of compound,< 7.00
COc1c(OCCCN2CCOCC2)ccc2c3n(c(=NC(=O)c4cnc(N)nc4)nc12)CCN3,"viability, T/C",compound 0.00316 µM,96.6% and 99.3%
same,"viability, T/C",compound 0.01 µM,89.4% and 83.8%
same,"viability, T/C",compound 0.0316 µM,78.5% and 68.5%
same,"viability, T/C",compound 0.1 µM,63.8% and 55.3%
same,"viability, T/C",compound 0.316 µM,42.5% and 39.9%
same,"viability, T/C",compound 1 µM,34.6% and 29.2%
same,pIC50,curve of compound,6.66 and 6.84
Cc1nc(NC(=O)N2CCCC2C(N)=O)sc1-c1ccnc(C(C)(C)C(F)(F)F)c1 (configuration not stated),"viability, T/C",compound 0.0316 µM,102% and 105%
same,"viability, T/C",compound 0.1 µM,93.8% and 98.5%
same,"viability, T/C",compound 0.316 µM,92.2% and 85.6%
same,"viability, T/C",compound 1 µM,85.7% and 77.4%
same,"viability, T/C",compound 3.16 µM,68.3% and 65.6%
same,"viability, T/C",compound 10 µM,57.7% and 47.6%
same,pIC50,curve of compound,< 5.00 and 5.04
Cn1cnc2c(F)c(Nc3ccc(Br)cc3Cl)c(C(=O)NOCCO)cc21,"viability, T/C",compound 0.00949 µM,89.7% and 95.5%
same,"viability, T/C",compound 0.03 µM,79.8% and 82.5%
same,"viability, T/C",compound 0.0949 µM,64.8% and 61.1%
same,"viability, T/C",compound 0.3 µM,55.1% and 49.1%
same,"viability, T/C",compound 0.949 µM,40.8% and 41.4%
same,"viability, T/C",compound 3 µM,33.3% and 34.5%
same,pIC50,curve of compound,6.38 and 6.57
COC1CC2CCC(C)C(O)(O2)C(=O)C(=O)N2CCCCC2C(=O)OC(C(C)CC2CCC(OCCO)C(OC)C2)CC(=O)C(C)C=C(C)C(O)C(OC)C(=O)C(C)CC(C)C=CC=CC=C1C (configuration not stated) + CC(C)NCC(C(=O)N1CCN(c2ncnc3c2C(C)CC3O)CC1)c1ccc(Cl)cc1,pIC50,"curve of first compound, second compound 0.3 µM",< 7.00
same,pIC50,"curve of first compound, second compound 0.949 µM",< 7.00
same,pIC50,"curve of first compound, second compound 3 µM",< 7.00
same,pIC50,"curve of first compound, second compound 9.49 µM",< 7.00
same,pIC50,"curve of first compound, second compound 30 µM",< 7.00
same,"viability, T/C","second compound 0.3 µM, first compound 0.000316 µM",97.5%
same,"viability, T/C","second compound 0.3 µM, first compound 0.001 µM",95.1%
same,"viability, T/C","second compound 0.3 µM, first compound 0.00316 µM",89.1%
same,"viability, T/C","second compound 0.3 µM, first compound 0.01 µM",82.5%
same,"viability, T/C","second compound 0.3 µM, first compound 0.0316 µM",81.1%
same,"viability, T/C","second compound 0.3 µM, first compound 0.1 µM",81.1%
same,"viability, T/C","second compound 0.949 µM, first compound 0.000316 µM",99%
same,"viability, T/C","second compound 0.949 µM, first compound 0.001 µM",94.8%
same,"viability, T/C","second compound 0.949 µM, first compound 0.00316 µM",84.5%
same,"viability, T/C","second compound 0.949 µM, first compound 0.01 µM",81.1%
same,"viability, T/C","second compound 0.949 µM, first compound 0.0316 µM",78.3%
same,"viability, T/C","second compound 0.949 µM, first compound 0.1 µM",78.2%
same,"viability, T/C","second compound 3 µM, first compound 0.000316 µM",88.7%
same,"viability, T/C","second compound 3 µM, first compound 0.001 µM",83.9%
same,"viability, T/C","second compound 3 µM, first compound 0.00316 µM",83.9%
same,"viability, T/C","second compound 3 µM, first compound 0.01 µM",77.8%
same,"viability, T/C","second compound 3 µM, first compound 0.0316 µM",77.4%
same,"viability, T/C","second compound 3 µM, first compound 0.1 µM",75.9%
same,"viability, T/C","second compound 9.49 µM, first compound 0.000316 µM",83.3%
same,"viability, T/C","second compound 9.49 µM, first compound 0.001 µM",84.1%
same,"viability, T/C","second compound 9.49 µM, first compound 0.00316 µM",80.7%
same,"viability, T/C","second compound 9.49 µM, first compound 0.01 µM",71.1%
same,"viability, T/C","second compound 9.49 µM, first compound 0.0316 µM",76%
same,"viability, T/C","second compound 9.49 µM, first compound 0.1 µM",71%
same,"viability, T/C","second compound 30 µM, first compound 0.000316 µM",71.3%
same,"viability, T/C","second compound 30 µM, first compound 0.001 µM",76.8%
same,"viability, T/C","second compound 30 µM, first compound 0.00316 µM",72.2%
same,"viability, T/C","second compound 30 µM, first compound 0.01 µM",63.5%
same,"viability, T/C","second compound 30 µM, first compound 0.0316 µM",75.8%
same,"viability, T/C","second compound 30 µM, first compound 0.1 µM",68.5%
